Columns and labels:
rat [1] = conditions: Prenatal developmental toxicity study, sprague dawley, Oral, Gavage/Intubation, dose end: 16 GD
rat [2] = conditions: Multigenerational reproductive toxicity study, sprague dawley, Oral, Feed, dose end: 2 generation
rat [3] = conditions: Subchronic oral toxicity in rodents, sprague dawley, Feed, dose end: 13 week, group: systemic
mouse [4] = conditions: Subchronic oral toxicity in rodents, other, Feed, dose end: 13 week, group: systemic
rat [5] = conditions: Subchronic oral toxicity in rodents, sprague dawley, Feed, dose end: 90 day, group: systemic
dog [6] = conditions: Chronic toxicity; beagle; Oral; Feed; dose end: 52 week; group: systemic; systemic / organ weight / liver / absolute + systemic / organ weight / liver / relative to body weight + systemic / pathology gross / liver…
mouse [7] = conditions: Sub-acute repeat dose toxicity, other, Oral, Feed, dose end: 4 week, group: systemic
mouse [8] = conditions: Carcinogenicity; b6c3f1; Oral; Feed; dose end: 104 week; group: systemic; systemic / pathology microscopic / liver / cellular alteration + systemic / pathology microscopic / liver / fatty change + systemic / …
rabbit [9] = conditions: Prenatal developmental toxicity study, new zealand white, Oral, Gavage/Intubation, dose end: 18 GD
rat [10] = conditions: Combined chronic toxicity/carcinogenicity, sprague dawley, Oral, Feed, dose end: 104 week
dog [11] = conditions: Chronic toxicity; beagle; Oral; Feed; dose end: 24 month; group: cholinesterase; cholinesterase / cholinesterase / cholinesterase / plasma cholinesterase (che)
rabbit [12] = conditions: Prenatal developmental toxicity study, Oral, Gavage/Intubation, dose end: 18 GD
dog [13] = conditions: Chronic toxicity, beagle, Oral, Feed, dose end: 52 week, group: cholinesterase
mouse [14] = conditions: Carcinogenicity; cd1; Oral; Feed; dose end: 104 week; group: cholinesterase; cholinesterase / cholinesterase / cholinesterase / cholinesterase (che)
rat [15] = conditions: Prenatal developmental toxicity study, other, Oral, Gavage/Intubation, dose end: 15 GD
dog [16] = conditions: Chronic toxicity; beagle; Oral; Capsule; dose end: 12 month; group: systemic; systemic / in life observation / body weight / body weight + systemic / in life observation / clinical signs / emaciation + systemic / in …
hamster = conditions: Subchronic oral toxicity in rodents, golden syrian, Feed, dose end: 90 day, group: systemic
rat [17] = conditions: Multigenerational reproductive toxicity study, sprague dawley, Oral, Feed, dose end: 2 generation; remark: listed apart in the source
rat [18] = conditions: Neurotoxicity screening battery; other; Oral; Feed; dose end: 11 month; group: cannot be grouped; systemic / in life observation / body weight / body weight
rat [19] = conditions: Combined chronic toxicity/carcinogenicity; sprague dawley; Oral; Feed; dose end: 2 year; group: systemic; systemic / clinical chemistry / cholesterol / cholesterol + systemic / in life observation / body weight / body weight + systemic / in life …
rat [20] = conditions: Prenatal developmental toxicity study, sprague dawley, Oral, Gavage/Intubation, dose end: 15 GD
mouse [21] = conditions: Carcinogenicity; cd1; Oral; Feed; dose end: 78 week; group: systemic; systemic / in life observation / body weight / body weight + systemic / in life observation / body weight / body weight gain
rat [22] = conditions: Subchronic oral toxicity in rodents, sprague-dawley, Feed, dose end: 90 day, group: systemic, systemic / organ weight / liver / absolute + systemic / organ weight / liver / relative to body weight + systemic / pathology microscopic / …
[23] = group: developmental, developmental / developmental malformation / bone / cervical + systemic / in life observation / body weight / fetal weight
[24] = group: developmental, developmental / developmental malformation / bone / cervical + systemic / in life observation / body weight / fetal weight + developmental…
[25] = group: maternal, systemic / in life observation / body weight / body weight gain + systemic / in life observation / food consumption / food consumption + …
[26] = group: offspring, developmental / developmental malformation / trunk / [other] + developmental / developmental malformation / ureter / hydroureter + systemic…
[27] = group: parental, systemic / in life observation / body weight / body weight + systemic / organ weight / pituitary gland / relative to body weight + systemic…
[28] = group: parental, systemic / organ weight / pituitary gland / relative to body weight + systemic / in life observation / water consumption / water consumption…
[29] = systemic / organ weight / liver / absolute
[30] = systemic / organ weight / liver / absolute + systemic / organ weight / kidney / absolute + systemic / organ weight / kidney / relative to …
[31] = systemic / in life observation / body weight / body weight + systemic / in life observation / body weight / body weight gain + systemic / in…
[32] = systemic / pathology microscopic / liver / hypertrophy
[33] = systemic / organ weight / liver / absolute + systemic / organ weight / liver / relative to body weight + systemic / pathology microscopic / …
[34] = group: developmental, developmental / developmental malformation / bone / full supernumerary
[35] = group: developmental, developmental / developmental malformation / bone / full supernumerary + systemic / in life observation / body weight / fetal weight
[36] = group: cholinesterase, cholinesterase / cholinesterase / cholinesterase / erythrocyte cholinesterase (che) + cholinesterase / cholinesterase / cholinesterase / …
[37] = group: systemic, systemic / pathology microscopic / liver / eosinophilic focus
[38] = group: systemic, systemic / pathology microscopic / liver / eosinophilic focus + systemic / pathology microscopic / liver / hypertrophy
[39] = group: developmental, developmental / developmental malformation / bone / fused
[40] = group: maternal, systemic / in life observation / body weight / body weight gain + systemic / urinalysis / appearance and color / appearance and color
[41] = group: maternal, systemic / in life observation / body weight / body weight gain + systemic / urinalysis / appearance and color / appearance and color + …
[42] = cholinesterase / cholinesterase / cholinesterase / plasma cholinesterase (che)
[43] = cholinesterase / cholinesterase / cholinesterase / plasma cholinesterase (che) + cholinesterase / cholinesterase / cholinesterase / brain …
[44] = group: developmental, developmental / developmental malformation / bone / delayed ossification
[45] = group: maternal, systemic / in life observation / clinical signs / hyperactivity
[46] = systemic / in life observation / body weight / body weight + systemic / in life observation / food consumption / food consumption
[47] = systemic / in life observation / body weight / body weight + systemic / in life observation / food consumption / food consumption + systemic…
[48] = group: offspring, systemic / in life observation / body weight / offspring (pup) weight
[49] = group: parental, systemic / pathology gross / kidney / discolored + systemic / pathology microscopic / kidney / casts granular + systemic / pathology …
[50] = group: developmental, systemic / in life observation / body weight / fetal weight
[51] = group: maternal, systemic / in life observation / body weight / body weight gain + systemic / in life observation / clinical signs / ataxia + systemic / in …

## CCCOCC(=Nc1ccc(Cl)cc1C(F)(F)F)n1ccnc1 [Triflumizole]
Rat [1]; [23]
  LEL: 35 mg/kg/day
  LOAEL: 35 mg/kg/day
Rat [1]; [24]
  NEL: 10 mg/kg/day
  NOAEL: 10 mg/kg/day
Rat [1]; [25]
  LEL: 35 mg/kg/day
  LOAEL: 35 mg/kg/day
  NEL: 10 mg/kg/day
  NOAEL: 10 mg/kg/day
Rat [2]; group: offspring, developmental / developmental malformation / trunk / [other] + developmental / developmental malformation / ureter / hydroureter
  LOAEL: 8.5 mg/kg/day
Rat [2]; [26]
  LEL: 8.5 mg/kg/day
  NEL: 3.5 mg/kg/day
  NOAEL: 3.5 mg/kg/day
Rat [2]; [27]
  LOAEL: > 8.5 mg/kg/day
  NOAEL: ≥ 8.5 mg/kg/day
Rat [2]; [28]
  LEL: 1.5 mg/kg/day
  NEL: < 1.5 mg/kg/day
Rat [2]; group: reproductive, reproductive / reproductive performance / gestational length / gestational length
  NOAEL: 3.5 mg/kg/day
Rat [2]; group: reproductive, reproductive / reproductive performance / gestational length / gestational length + reproductive / offspring survival early / litter size / …
  LOAEL: 8.5 mg/kg/day
Rat [2]; group: reproductive, reproductive / reproductive performance / gestational length / gestational length + reproductive / reproductive performance / mating / …
  NEL: 1.5 mg/kg/day
Rat [2]; group: reproductive, reproductive / reproductive performance / mating / mating
  LEL: 3.5 mg/kg/day
Rat [3]; [29]
  LEL: 1.4 mg/kg/day
  NEL: < 1.4 mg/kg/day
Rat [3]; [30]
  LOAEL: 176 mg/kg/day
  NOAEL: 15.3 mg/kg/day
Mouse [4]; systemic / in life observation / body weight / body weight + systemic / in life observation / body weight / body weight gain
  LOAEL: 381 mg/kg/day
Mouse [4]; [31]
  LEL: 381 mg/kg/day
  NEL: 33.1 mg/kg/day
  NOAEL: 33.1 mg/kg/day
Rat [5]; [32]
  LEL: 4.1 mg/kg/day
  NEL: < 4.1 mg/kg/day
Rat [5]; systemic / pathology microscopic / liver / hypertrophy + systemic / pathology microscopic / liver / vacuolization
  LOAEL: 40.9 mg/kg/day
Rat [5]; systemic / pathology microscopic / liver / hypertrophy + systemic / pathology microscopic / liver / vacuolization + systemic / hematology / …
  NOAEL: 4.1 mg/kg/day
Dog [6]
  LEL: 34.1 mg/kg/day
  LOAEL: 34.1 mg/kg/day
  NEL: 10 mg/kg/day
  NOAEL: 10 mg/kg/day
Mouse [7]; [33]
  LOAEL: 397 mg/kg/day
  NEL: 3.8 mg/kg/day
  NOAEL: 40.3 mg/kg/day
Mouse [7]; systemic / organ weight / liver / relative to body weight + systemic / urinalysis / glucose / glucose
  LEL: 40.3 mg/kg/day
Mouse [8]
  LEL: 67.4 mg/kg/day
  LOAEL: 67.4 mg/kg/day
  NEL: 16.2 mg/kg/day
  NOAEL: 16.2 mg/kg/day
Rabbit [9]; [34]
  LEL: 100 mg/kg/day
  LOAEL: 100 mg/kg/day
Rabbit [9]; [35]
  NEL: 50 mg/kg/day
  NOAEL: 50 mg/kg/day
Rabbit [9]; [25]
  LEL: 100 mg/kg/day
  LOAEL: 100 mg/kg/day
  NEL: 50 mg/kg/day
  NOAEL: 50 mg/kg/day
Rat [10]; [36]
  LEL: 14.4 mg/kg/day
  LOAEL: > 59.4 mg/kg/day
  NEL: 3.5 mg/kg/day
  NOAEL: ≥ 59.4 mg/kg/day
Rat [10]; [37]
  LOAEL: 3.5 mg/kg/day
  NOAEL: < 3.5 mg/kg/day
Rat [10]; [38]
  LEL: 3.5 mg/kg/day
  NEL: < 3.5 mg/kg/day

## CCOP(=S)(OCC)SCSP(=S)(OCC)OCC [Ethion]
Dog [11]
  LEL: 0.403 mg/kg/day
  LOAEL: 0.403 mg/kg/day
  NEL: 0.123 mg/kg/day
  NOAEL: 0.123 mg/kg/day
Rabbit [12]; [39]
  LEL: 9.6 mg/kg/day
  LOAEL: 9.6 mg/kg/day
  NEL: 2.4 mg/kg/day
  NOAEL: 2.4 mg/kg/day
Rabbit [12]; [40]
  LEL: 2.4 mg/kg/day
  LOAEL: 2.4 mg/kg/day
Rabbit [12]; [41]
  NEL: 0.6 mg/kg/day
  NOAEL: 0.6 mg/kg/day
Dog [13]; [42]
  LEL: 0.049 mg/kg/day
  LOAEL: 0.049 mg/kg/day
Dog [13]; [43]
  NEL: 0.026 mg/kg/day
  NOAEL: 0.026 mg/kg/day
Mouse [14]
  LEL: 1.2 mg/kg/day
  LOAEL: > 1.2 mg/kg/day
  NEL: 0.22 mg/kg/day
  NOAEL: ≥ 1.2 mg/kg/day
Rat [15]; [44]
  LEL: 2.5 mg/kg/day
  LOAEL: 2.5 mg/kg/day
  NEL: 0.6 mg/kg/day
  NOAEL: 0.6 mg/kg/day
Rat [15]; [45]
  LEL: 2.5 mg/kg/day
  LOAEL: 2.5 mg/kg/day
  NEL: 0.6 mg/kg/day
  NOAEL: 0.6 mg/kg/day

## CCN(CC)C(=O)c1cccc(C)c1 [DEET]
Dog [16]
  LEL: 400 mg/kg/day
  LOAEL: 400 mg/kg/day
  NEL: 100 mg/kg/day
  NOAEL: 100 mg/kg/day
hamster; [46]
  LEL: 304 mg/kg/day
  LOAEL: 304 mg/kg/day
hamster; [47]
  NEL: 61 mg/kg/day
  NOAEL: 61 mg/kg/day
Rat [17]; [48]
  LEL: 250 mg/kg/day
  LOAEL: > 250 mg/kg/day
  NEL: 100 mg/kg/day
  NOAEL: ≥ 250 mg/kg/day
Rat [17]; [49]
  LEL: 25 mg/kg/day
  LOAEL: 25 mg/kg/day
  NEL: < 25 mg/kg/day
  NOAEL: < 25 mg/kg/day
Rat [18]
  LEL: 250 mg/kg/day
  LOAEL: > 250 mg/kg/day
  NEL: 100 mg/kg/day
  NOAEL: ≥ 250 mg/kg/day
Rat [19]
  LEL: 400 mg/kg/day
  LOAEL: 400 mg/kg/day
  NEL: 100 mg/kg/day
  NOAEL: 100 mg/kg/day
Rat [20]; [50]
  LEL: 750 mg/kg/day
  LOAEL: 750 mg/kg/day
  NEL: 250 mg/kg/day
  NOAEL: 250 mg/kg/day
Rat [20]; [51]
  LEL: 750 mg/kg/day
  LOAEL: 750 mg/kg/day
  NEL: 250 mg/kg/day
  NOAEL: 250 mg/kg/day
Mouse [21]
  LEL: 1000 mg/kg/day
  LOAEL: 1000 mg/kg/day
  NEL: 500 mg/kg/day
  NOAEL: 500 mg/kg/day
Rat [22]
  LEL: 100 mg/kg/day
  LOAEL: 100 mg/kg/day
  NEL: < 100 mg/kg/day
  NOAEL: < 100 mg/kg/day
